Four compounds from patent EP1310250A1, “Use of the compound 2-methoxyphenyl-1-methyl-5P-methylbenzoyl-pyrrol-2-acetamido acetate for the production of an antiinflammatory drug with prevention of gastric hypersecretion and renal impairment” (MEDOSAN Ricerca S.r.l., priority 1997, dated 1999) can be followed below.

Data set [1] has as its system isolated, perfused, immature rat stomach. Put plainly: Antisecretive activity in vitro, isolated perfused immature rat stomach. Conditions: agonist Histamine 10^-4 M, antagonist 10^-4 M. The text has this: Male Wistar rats, 250±10 g b.w. (Charles River, Calco, Como, Italy), quarantined for five days prior to the beginning of the trial and divided into groups of 3 animals per cage, were used for determination of gastric lesions and of ID50 determination. Immature male Wistar rats, 30-45 g b.w. (Harlan Nossan, Milano) were used for the determination of the antisecretory effect on isolated rat stomach. The guinea-pigs used were the Dunkin Hartley guinea-pigs (Harlan Nossan, Milano, Italy).
At the beginning, the isolated, perfused, immature rat stomach, treated externally with the study product, was used. We preferred to use the isolated stomach in toto rather than strips (B.R. No. 18, 19 and 20) in order not to exclude a section of the stomach (the antrum), unimportant for acid secretion but very important for the secretion of bicarbonates and bioactive peptides (b.r. No. 21, 22). The results were encouraging, since amtolmetin guacyl inhibited acid production stimulated by the three classic agonists (histamine, acetilcholine and gastrin) both using varying doses of agonist or varying doses of amtolmetin guacyl (Table 5).
The results are expressed as mean±S.E.

Data set [2] relates to post-traumatic arthralgia. Nature of the data set: Clinical trials: analgesic properties in post-traumatic arthralgia. Type of data set: in vivo, man. Conditions: Amtolmetin guacyl 600mgx2-daily, Diclofenac 50mgx2-daily, 15 patients each. The source says: The same can be said in the treatment of post-traumatic arthralgia.
Data set [3] relates to carrageenin-induced paw oedema. Nature of the data set: Determination of ID50, carrageenin-induced paw oedema. Type of data set: in vivo, rat. Conditions: five times the oral ID50 for oedema inhibition, 2 h after carrageenin. The method, then: ID50, relative to the products under examination (considered in table 1), has been evaluated using the anti-inflammatory response to carrageenin-induced paw oedema (according to Wong et al, J Pharmacol Exp, 1973:1855; pages 127-138). The products, suspended in 1% CMC, were administered orally in a total volume of 5 ml/rat. 1 h later, 0.1 ml of 1% carrageenin sterile solution was injected into the hind subplantar aponeurosis. Volume of the paw was measured immediately prior to injection of the phlogogen and 2 h thereafter, by means of a plethysmograph. The percentage of inhibition of oedema was calculated as follows: 1 - ΔV treated/ΔV control x 100 [formula] where ΔV = final V - initial V.
(In general: In the carrageenan paw model, swelling and tenderness develop within hours.)

Another data set deals with diuresis. Nature of the data set: Diuresis in normally hydrated rats. The class given is in vivo. The note with it: normally hydrated rats treated orally for 8 consecutive days (figure 13). The method, then: In the course of various studies conducted on animals to show the lack of renal impairment, a test was carried out to compare the diuresis in normally hydrated rats treated orally for 8 consecutive days with amtolmeting guacyl and diclofenac, which is also a NSAID.

The test system of another data set is gastric mucosa. Nature of the data set: Histological evaluation of the gastric mucosa by an independent laboratory. Conditions: single animals; oral gavage: amtolmetin guacyl 50 mg/kg, diclofenac 7.5 mg/kg, tolmetin 66.6 mg/kg.
A further data set has as its system rat gastric mucosa. Conditions: male, Wistar, in vivo, po, 4 days. As to the method: The animals entered in the trial, randomized and divided into groups of 6 rats each, were fasted for 16 h prior to treatment, with access to water ad libitum. They were re-fed 1 h after drug administration. The compound 2-methoxyphenyl-1-methyl-5p-methylbenzoyl-pyrrol-2-acetamido acetate and the other reference NSAIDs, suspended in 1% carboxymethylcellulose (CMC) solution, were orally administered by gastric gavage in a volume of 6ml/kg for four consecutive days. Controls received the vehicle in the same way as the treated animals. 4 h after the last administration the animals were killed by ether overdose; the stomachs were removed, rinsed with 10 ml of saline and immersed in 1% formalin. They were later opened along the greater curvature and the mucosa examined for lesions.
The seriousness of the lesion was quantified according to a scale graduated from 1 to 3 according to the size of the lesions: 1= ulcer < 1mm; 2= ulcer 1-2mm; 3= ulcer > 2mm. The total sum was divided by 10 to obtain the "erosion index". The gastric lesions were evaluated by two independent investigators under blind conditions according to Main & Whittle method (BJ Pharmac 1975:53; p. 217-224).
Since the average daily dose in man (for the anti-inflammatory activity) is 600 mg, the comparative efficacious dose in the rat is in the ratio of 12:1. More precisely, comparative evaluation with the other NSAID compounds was calculated as follows: 600 mg/die: 50 mg/kg = daily dose of reference NSAID in man: X [formula] where X represents the daily dose of the reference NSAID in rat. This criterion keeps into account the "real" activity ratio in man. In this work the "ratio to rat dosage" has also been included which keeps into account ratios homogeneous to the same animal species. To evaluate the "ratio to rat dosage" the ID50 has been determined using the carrageenin-induced oedema as inflammatory test.
In order to exacerbate possible side effects on the stomach the dosage of amtolmetin guacyl was quadruplicated.

The subject of another data set is Adjuvant arthritis. Nature of the data set: Adjuvant arthritis: joint inflammation and patellar bone erosion. The note with it: patellar bone mass; MED 15 25, 50, 100mg/kg, piroxicam 3mg/kg. Type of data set: in vivo, rats. The method, then: The drugs were administered daily by oral gavage for 4 days (day 0-3); piroxicam and MED 15 were dissolved in 5% Gum arabic + 0.01% Tween 80, and administered in a volume of 0.5ml. Piroxicam was administered as 3mg/kg and MED 15 was administered as 25, 50 and 100mg/kg doses. Table 8 bis illustrating dosage regimes. L=left stifle joint, R=Right stifle joint.
Under halothane anaesthesia, rats received 200µg of heat-killed finely ground Mycobactyerium tubercolosis in 25µl (80mg/10ml sterile saline) injected intra-articulary into the left stifle joint. The contralateral joint received 25µl 0.9% sterile saline. Control animals received 25µl of 0.9% sterile saline in both knees. SGE 50µl microsyringes with a volume lock calibrated at 25µl were used with 30G stainless steel needles. Solutions were prepared sterile, and aseptic technique was used throughout, with sterilisation of syringes between groups.
The rats were killed by carbon dioxide suffocation. The body weight was noted and the skin overlying the stifle joints was divided and the joint diameters assessed in mm using Mitutoyo vernier callipers (530-312, 0.02mm).
The patellae were dissected, weighed (Sartorius, 0.01mg) and then immersed in 1ml digestion buffer (see below) to remove soft tissue.
Digestive buffer was prepared fresh to the following formula; disodium hydrogen orthophosphate 20mM, EDTA 1mM and diothiothreitol at 2mM. […]

Structures are written as SMILES. Several values for one entry are separate records, joined by “and”; a condition that tells them apart may be missing. Equal values may be shown once. Marks after values point to notes of the source that are not given here.

Turning to `CN/C(=N/CCSCc1nc[nH]c1C)NC#N` [Cimetidine, cimetidine, reference compound], the “% inhib.” value in data set [1] was determined as 78.6%. Also, in data set [1] (mean±S.E.), the “Δacid” value was 14.3 ± 7.2 nmol/min.
As to `O=C(O)Cc1ccccc1Nc1c(Cl)cccc1Cl` [Diclofenac sodium, diclofenac sodium], in data set [2], the “Duration” value was determined as 180 min, the “Latency” value was 20 min and the “Max. time effect” value was found to be 60 min. In data set [3], the “Ratio to rat dosage (mg/kg) (ID50 mg/kg x5)” value is 15.8 mg/kg. In addition, in the data set on diuresis, the diuresis result is “clear decrease”. Also, in the data set with gastric mucosa, the Macroscopic findings was 2 and 4 and 7; the Microscopic findings was 2* and 3* and 9*. Also, the “further gastric findings (table footnotes)” value in the data set on rat gastric mucosa is recorded as “Each value is the mean of 6 rats. ^a)Diffuse haemorrhagic gastritis was also present”.
On to `CN1C(C(=O)Nc2ccccn2)=C(O)c2ccccc2S1(=O)=O` [Piroxicam, piroxicam], for which the “Ratio to rat dosage (mg/kg) (ID50 mg/kg x5)” value in data set [3] amounted to 13.8 mg/kg. In the data set on Adjuvant arthritis, the “protection against bone loss” value is recorded as “greatest protection against bone loss”.
Regarding `Cc1ccc(C(=O)c2ccc(CC(=O)O)n2C)cc1` [Tolmetin, tolmetin], in the data set on gastric mucosa, the Macroscopic findings was 3 and 0 (2×); the Microscopic findings was 2+ and 0+ and 1+. In addition, the Gastrolesive index in the data set on rat gastric mucosa is listed as 79.7.
